System: d(ATGCAT)2 (DNA, duplex) ATGCAT
Experiment: melting temperature
Details: derived from two Tm (~30 free, ~45 complex); reviewed from authors' ref 23

dTm: ~ 15 °C
SMILES: Cc1cccc2nc3cccc(C(=O)NCCNCCNCCNC(=O)c4cccc5nc6cccc(C)c6nc45)c3nc12

From publication PMC4772870 (2015)
